Reference: patent US9730906B2, “α-derivatives of cis-monounsaturated fatty acids for use as medicines” (UNIVERSITAT DE LES ILLES BALEARS, priority 2008, dated 2017)
Where two headings read alike, the source gives them in different places.

Tests used:
SF767 human tumour cells = test: Growth of SF767 tumour cells in culture; assay type: cell-based
Procedure: In a second experimental series, designed to discover whether these molecules are effective in treatment of different types of tumours, the effect of OHOD at various concentrations on human cells of different types of cancer was studied. These experiments were performed as described before, except that the M220 and HT-29 cell lines were cultured in DMEM medium and the MDA-MB-231 line was incubated in Leibowitz L-15 medium supplemented with 15% foetal bovine […]. […] Where the nature of the tumour process requires, application can be topical (use on the skin of active products for the treatment of melanoma and other cutaneous abnormalities of cancerous nature), which can be considered as cosmetic treatments when attempts are made to correct aesthetic defects.

A549 cells = test: Growth/viability of A549 lung cancer cells in culture (cell count); assay type: cell-based, human; settings: for tumour cell growth (number of cells, percent of untreated): 150 μM, 48 hours, A549
Procedure: FIG. 3A. Cancer cells (A549) were treated with various concentrations of OHOD and MOD11 to determine whether the effect was dependent on the concentration. […] These cells were treated with different concentrations (0-400 μM) of OHOD and MOD11 and the number of cells was determined by flow cytometry.
FIG. 3B. Cancer cells (A549) were treated with compounds indicated on the horizontal axis for 48 hours at 150 μM. Then, the cells were counted and their number and percent of untreated (control) represented on the vertical axis.
Also, a series of α-derivatives of cis-monounsaturated fatty acids were used to investigate their effectiveness in cancer treatment. Two types of experiment were performed. Firstly, the dependency of the anti-tumour effect on concentration was investigated. To perform these experiments, human lung cancer cells (A549) were cultivated in RPMI medium, supplemented with 10% foetal bovine […], 10 mM Hepes (pH 7.4), 2 mM glutamine, 2 g/l bicarbonate, 1 g/l glucose, 100 units/ml penicillin, 0.1 mg/ml streptomycin, 0.25 μg/ml Amphotericin B, at 37° C. and in the presence of 5% CO2. In a first experimental series, these cells were treated with various concentrations (0-400 μM) of OHOD and MOD11 and the number of cells was determined by flow cytometry (FIG. 3A). […] In a second series, the anti-tumour effectiveness on A549 lung cancer cells was investigated at a single concentration (150 μM) and a time of 48 hours (FIG. 3B). […] Obviously, among the previous molecules, some lacked both modifications on the α-carbon and the double bond in cis configuration (EO, HDO, ODO) and had no therapeutic effect. […]

[1] = Levels of cholesterol, triglycerides and glucose in rats after oral treatment; assay type: in vivo, rat
Procedure: FIG. 13. The four bars, from left to right respectively, show the effect of treatments with vehicle (control, first bar), OHOD at 200 mg/kg (second bar), OHOD at 400 mg/kg (third bar) and OHOD at 600 mg/kg (fourth bar) on the cholesterol levels (group of four bars to the left), triglycerides (group of four bars in the middle) and glucose (group of four bars to the right). The treatments were oral in all cases and were maintained for 30 days. The values indicated are the average obtained in 6 animals per group.
FIG. 14. Effect of treatment with vehicle (control) or with the fatty acids of the invention (600 mg/kg) on the levels of cholesterol, triglycerides and glucose. The values indicated are the average of the values obtained in 6 animals. Each group of three bars represents treatment with a different fatty acid with the left bar corresponding to cholesterol, the middle bar to triglycerides and the right bar to glucose.
Metabolic diseases form a set of pathologies characterised by the accumulation or deficit of certain molecules (cholesterol, triglycerides, glucose, etc.) in the serum or tissues. These changes are the reflection of dysfunctions that are normally associated with errors in the activity of certain enzymes or in the control of these proteins. Among the most important metabolopathies are hypercholesterolemia (elevated levels of cholesterol), hypertriglyceridemia (elevated levels of triglycerides) and diabetes (elevated levels of glucose). These pathologies have high rates of incidence, morbidity and mortality, so that treatment is a first order necessity. […] For these experiments, the dose of fatty acid indicated (0, 200, 400 and 600 mg/kg) was supplied daily via the oral route. At the end of the treatment (30 days), blood was sampled from control and treated animals (n=6) and the levels of cholesterol, triglycerides and glucose were determined using standard colorimetric methods.
(§1) In a further experiment, the effect of various molecules at a single dose (600 mg/kg) was investigated. […] In this sense, modification on the α-carbon and the double bond in cis configuration are crucial elements for producing the therapeutic effect indicated above. […] Finally, the effect of α-derivatives of cis-monounsaturated fatty acids on the prevention of obesity was investigated. For this, a model of rat obesity induced by a cafeteria diet, where the hypercaloric food increases the weight of the animals very markedly, was used. There were various experimental groups (see Table 3), each of which consisted of 6 female Wistar Kyoto rats of 250-300 g in weight. All the animals received a standard diet for 2 weeks. In addition, 2 of the groups received an oral preventative pre-treatment of vehicle and the other groups received 300 mg/kg of the fatty acids indicated below. Afterwards, one of the control groups was maintained on a standard diet (lean control) and the other was fed on a cafeteria diet (obese control). The treated animal groups were fed on the cafeteria diet. Preventative pre-treatment was maintained for all the groups. After two weeks on these diets, the lean control group had increased their body weight by an average of 16±16 g, while the obese control group had increased their body weight by an average of 43±17 g (statistically significance difference, p<0.01).

[2] = Body weight of rats on cafeteria diet, no pre-treatment (Table 5); assay type: in vivo, rat
Excerpt: (§2) The weight of treated animals was statistically less than the weight of obese control rats and statistically indistinguishable from that of lean control rats.

hypertensive rats = test: Arterial pressure in hypertensive rats after 8-day treatment (Table 5); assay type: in vivo, rat
[3] = Rat obesity induced by cafeteria diet, preventative pre-treatment (Table 3); assay type: in vivo, Wistar Kyoto rats; settings: 300 mg/kg oral, after two weeks on cafeteria diet; obese control 308 ± 17, lean control 280 ± 16; * lower than obese controls, ‡ indistinguishable
Procedure: as §1, §2

[4] = concentration that reduces the number of cells to half
[5] = rats, daily dose of 600 mg/kg oral, untreated controls = 100%
[6] = cafeteria diet for 2 weeks, 300 mg/kg daily oral, no pre-treatment
[7] = arterial pressure, hypertensive rats, 8-day treatment, 400 mg/kg oral

| Compound | IC50 (SF767 human tumour cells; [4]) [µM] | IC50 (A549 cells; [4]) [µM] | % control CHO (cholesterol) [1, 5] [% control] | % control TG (triglycerides) [1, 5] [% control] | Body weight (g) (control = 311 g) [2, 6] | PA (control 214 mmHg) (hypertensive rats; [7]) [mmHg] | tumour cell growth (number of cells, percent of untreated) (A549 cells) | Final weight [3] | also measured |
| --- | --- | --- | --- | --- | --- | --- | --- | --- | --- |
| CCCCCCCC/C=C\CCCCCCC(C(C)=O)C(=O)O (stereo not drawn) [ACOD, α-Acetyl-cis-Δ9-octadecenoic] | 179 | 153 | 59 | 53 | 301 | 157 |  |  |  |
| CCCCCCCC/C=C\CCCCCCC(OP(=O)(OCC)OCC)C(=O)O (stereo not drawn) [DEPOD, α-diethyl-phosphatidyl-cis-Δ9-octadecenoic] |  |  |  |  |  |  |  |  | IC50 (SF767 human tumour cells): 99 µM; IC50 (A549 cells): 57 µM; % control CHO (cholesterol) ([1]; rat, in vivo, po, 600 mg/kg): 58 % control; % control TG (triglycerides) ([1]; rat, in vivo, po, 600 mg/kg): 43 % control; Body weight (g) (control = 311 g) ([2]; rat, in vivo): 301 g; PA (control 214 mmHg) (hypertensive rats; rat, in vivo, po, 400 mg/kg): 147 mmHg |
| CCCCCCCC/C=C\CCCCCCC(OC(C)=O)C(=O)OCC (stereo not drawn) [EE- ACOD] | 176 | 185 | 72 | 56 | 294 | 158 |  |  |  |
| CCCCCCCC/C=C\CCCCCCC(OP(=O)(OCC)OCC)C(=O)OCC (stereo not drawn) [EE-DEPOD] | 82 | 77 | 69 | 49 | 295 | 168 |  |  |  |
| CCCCCCCC/C=C\CCCCCCC(OC)C(=O)OCC (stereo not drawn) [EE-MOOD] | 195 | 168 | 64 | 66 | 297 | 154 |  |  |  |
| CCCCCCCCC=CCCCCCCC(O)C(=O)OCC (stereo not drawn) [EE-OHOD] | 68 | 79 | 62 | 47 | 295 | 161 |  |  |  |
| CCCCCCCCCCCCCCCCCCCC(=O)O [EO, Eicosanoic, reference compound] |  |  |  |  |  |  | did not show anti-tumour effectiveness | 298 ± 12‡ g |  |
| CCCCCCCCCCCCCCCC(=O)O [HDO, Hexadecanoic, reference compound] |  |  |  |  |  |  | did not show anti-tumour effectiveness | 299 ± 15‡ g |  |
| CCCCCCCC/C=C\CCCCCCC(OC(C)=O)C(=O)[O-].[Na+] (stereo not drawn) [Na-ACOD] | 132 | 124 | 49 | 35 | 298 | 166 |  |  |  |
| CCCCCCCC/C=C\CCCCCCC(OP(=O)(OCC)OCC)C(=O)[O-].[Na+] (stereo not drawn) [Na-DEPOD] | 104 | 32 | 45 | 37 | 298 | 159 |  |  |  |
| CCCCCCCC/C=C\CCCCCCC(OC)C(=O)[O-].[Na+] (stereo not drawn) [Na-MOOD] | 91 | 77 | 63 | 68 | 272 | 131 |  |  |  |
| CCCCCCCC/C=C/CCCCCCCC(=O)O [OD, Trans-Octadecenoic, reference compound] |  |  |  |  |  |  | did not show anti-tumour effectiveness | 311 ± 17‡ g |  |
| CCCCCCCCCCCCCCCCCC(=O)O [ODO, Octadecanoic, reference compound] |  |  |  |  |  |  | did not show anti-tumour effectiveness | 301 ± 18‡ g |  |
| CCCCCCCCCCCCCCCCC(O)C(=O)O (stereo not drawn) [OHS, α-Hydroxy-octadecanoic, reference compound] |  |  |  |  |  |  | lacked anti-tumour effectiveness | 314 ± 11‡ g |  |
| CCCCCCCC/C=C\CCCCCCC(OC(C)=O)C(=O)OC (stereo not drawn) [OMe- ACOD] | 214 | 246 | 86 | 74 | 296 | 152 |  |  |  |
| CCCCCCCC/C=C\CCCCCCC(OP(=O)(OCC)OCC)C(=O)OC (stereo not drawn) [OMe-DEPOD] | 43 | 66 | 63 | 45 | 293 | 175 |  |  |  |
| CCCCCCCC/C=C\CCCCCCC(OC)C(=O)OC (stereo not drawn) [OMe-MOOD] | 128 | 149 | 77 | 69 | 296 | 143 |  |  |  |
| CCCCCCCC/C=C\CCCCCCC(O)C(=O)OC (stereo not drawn) [OMe-OHOD] | 107 | 94 | 71 | 64 | 299 | 155 |  |  |  |
| CCCCCCCC/C=C/CCCCCCC(O)C(=O)O (stereo not drawn) [tOHOD, α-Hydroxy-trans-octadecenoic, reference compound] |  |  |  |  |  |  | lacked anti-tumour effectiveness | 312 ± 19‡ g |  |
| Cis-Docosenoic [DE, reference compound] |  |  |  |  |  |  | did not show anti-tumour effectiveness | 305 ± 12‡ g |  |
| Cis-Eicosenoic [EE, reference compound] |  |  |  |  |  |  | did not show anti-tumour effectiveness | 301 ± 17‡ g |  |
| Trans-Hexadecenoic [HD, reference compound] |  |  |  |  |  |  | did not show anti-tumour effectiveness | 309 ± 15‡ g |  |
